Activity calls are given as the source filed them.
Columns and labels:
[1] = target: Proprotein convertase subtilisin/kexin type 9 (Homo sapiens) (UniProt Q8NBP7); assay: Inhibition of PCSK9 transcription in human HepG2 cells at 5 uM by AlphaLISA method; format: cell-based
[2] = Hepatotoxicity in HFD induced C57BL/6 mouse assessed as decrease in serum ALT level at 10 to 30 mg/kg, ip administered for 3 weeks; format: toxicity, organism-based; details: in vivo, 504 h, dose 10-30 mg/kg
HepG2 [3] = assay: Upregulation of LDLR protein level in human HepG2 cells at 5 uM after 6 hrs by Western blotting analysis; format: functional, cell-based
[4] = target: Hepatocyte nuclear factor 1-alpha (Homo sapiens) (UniProt P20823); assay: Binding affinity to HNF1alpha in human HepG2 cells assessed as increase in thermal stability at 10 uM after 1 hr by CETSA; format: cell-based
Hepatocyte nuclear factor 1-alpha (Homo sapiens), sequence (P20823 whole entry): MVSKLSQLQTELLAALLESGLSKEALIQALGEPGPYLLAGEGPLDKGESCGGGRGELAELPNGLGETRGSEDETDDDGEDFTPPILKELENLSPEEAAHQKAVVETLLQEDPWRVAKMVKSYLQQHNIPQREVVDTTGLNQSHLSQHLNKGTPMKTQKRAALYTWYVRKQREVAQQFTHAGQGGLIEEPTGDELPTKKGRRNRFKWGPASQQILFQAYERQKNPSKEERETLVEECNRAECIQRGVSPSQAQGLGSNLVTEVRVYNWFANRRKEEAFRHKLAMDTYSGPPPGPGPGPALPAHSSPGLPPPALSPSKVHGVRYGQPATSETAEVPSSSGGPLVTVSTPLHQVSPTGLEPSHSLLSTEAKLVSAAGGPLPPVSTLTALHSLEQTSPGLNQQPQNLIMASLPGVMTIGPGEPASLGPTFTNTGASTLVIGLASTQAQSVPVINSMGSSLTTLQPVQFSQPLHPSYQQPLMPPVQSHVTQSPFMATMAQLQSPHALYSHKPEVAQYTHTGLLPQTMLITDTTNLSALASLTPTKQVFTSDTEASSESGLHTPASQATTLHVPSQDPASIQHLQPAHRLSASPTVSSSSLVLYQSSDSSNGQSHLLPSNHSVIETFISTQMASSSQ

[5] = target: Proprotein convertase subtilisin/kexin type 9 (Homo sapiens) (UniProt Q8NBP7); assay: Inhibition of PCSK9 (unknown origin) promoter activity expressed in HEK293 cells co-transfected with SV40 incubated for 24 hrs by dual luciferase assay; format: cell-based; details: dose 1-20 µM
HepG2 [6] = assay: Downregulation of PCSK9 protein level in human HepG2 cells by Western blotting analysis; format: functional, cell-based; details: dose 1-20 µM
Hepatocyte [7] = assay: Downregulation of PCSK9 mRNA level in HFD treated mouse hepatocytes at 5 to 20 uM incubated for 24 hrs by qRT-PCR analysis; format: functional, cell-based; details: dose 5-20 µM
HepG2 [8] = assay: Induction of LDL uptake in HNF1alpha knockdown human HepG2 cells at 5 uM incubated for 3 hrs under dark condition by DiI-LDL DMEM staining based fluorescence microplate reader assay; format: functional, cell-based
[9] = Hepatotoxicity in HFD induced C57BL/6 mouse assessed as decrease in liver index at 10 to 30 mg/kg, ip administered for 3 weeks; format: toxicity, organism-based; details: in vivo, 504 h, dose 10-30 mg/kg
HepG2 [10] = assay: Downregulation of PCSK9 mRNA level in HNF1alpha knockdown human HepG2 cells incubated for 24 hrs by qRT-PCR analysis; format: functional, cell-based
[11] = Toxicity in HFD induced C57BL/6 mouse assessed as change in food intake at 10 to 30 mg/kg, ip administered for 3 weeks; format: organism-based; details: in vivo, 504 h, dose 10-30 mg/kg
HepG2 [12] = assay: Inhibition of HNF1alpha nuclear transport in human HepG2 cells at 1 to 10 uM after 24 hrs by Western blotting analysis; format: functional, cell-based; details: dose 1-10 µM
HepG2 [13] = assay: Downregulation of PCSK9 mRNA level in human HepG2 cells by qRT-PCR analysis; format: functional, cell-based; details: dose 1-20 µM
[14] = Hepatotoxicity in HFD induced C57BL/6 mouse assessed as decrease in serum AST level at 10 to 30 mg/kg, ip administered for 3 weeks; format: toxicity, organism-based; details: in vivo, 504 h, dose 10-30 mg/kg
Mus musculus [15] = assay: Hypolipidemic activity in HFD induced C57BL/6 mouse assessed as reduction in serum TG level at 10 to 30 mg/kg, ip administered for 3 weeks; format: functional, organism-based; details: dose 10-30 mg/kg
Hepatocyte [16] = assay: Downregulation of PCSK9 protein level in HFD treated mouse hepatocytes at 5 to 20 uM incubated for 24 hrs by Western blotting analysis; format: functional, cell-based; details: dose 5-20 µM
[17] = target: Proprotein convertase subtilisin/kexin type 9 (Homo sapiens) (UniProt Q8NBP7); assay: Inhibition of PCSK9 (unknown origin) promoter activity expressed in HNF1alpha knockdown HEK293 cells co-transfected with SV40 incubated for 24 hrs by dual luciferase assay; format: cell-based
HepG2 [18] = assay: Effect on HNF1alpha protein level in human HepG2 cells at 5 uM incubated for 24 hrs by Western blotting analysis; format: functional, cell-based
HepG2 [19] = assay: Induction of LDL uptake in human PCSK9 knockdown HepG2 cells at 5 uM incubated for 3 hrs under dark condition by DiI-LDL DMEM staining based fluorescence microplate reader assay; format: functional, cell-based
Mus musculus [20] = assay: Downregulation of PCSK9 protein level in HFD induced C57BL/6 mouse liver at 10 to 30 mg/kg, ip administered for 3 weeks by Western blotting analysis; format: functional, organism-based; details: dose 10-30 mg/kg
HepG2 [21] = assay: Upregulation of LDLR mRNA level in HNF1alpha knockdown human HepG2 cells incubated for 24 hrs by qRT-PCR analysis; format: functional, cell-based
[22] = Effect on HEK293 cell viability at 20 uM; format: toxicity, cell-based; details: human, hek293, 20 µM
HepG2 [23] = assay: Induction of LDL uptake in human HepG2 cells incubated for 3 hrs under dark condition by DiI-LDL DMEM staining based fluorescence microplate reader assay; format: functional, cell-based
HepG2 [24] = assay: Downregulation of PCSK9 protein level in human HepG2 cells at 5 uM after 3 hrs by Western blotting analysis; format: functional, cell-based
Mus musculus [25] = assay: Hypolipidemic activity in HFD induced C57BL/6 mouse assessed as reduction in serum LDL-C level at 10 to 30 mg/kg, ip administered for 3 weeks; format: functional, organism-based; details: dose 10-30 mg/kg
HepG2 [26] = assay: Upregulation of LDLR mRNA level in human HepG2 cells by qRT-PCR analysis; format: functional, cell-based
HepG2 [27] = assay: Downregulation of PCSK9 protein level in HNF1alpha knockdown human HepG2 cells at 10 uM incubated for 24 hrs by Western blotting analysis; format: functional, cell-based
Mus musculus [28] = assay: Upregulation of […] protein level in HFD induced C57BL/6 mouse liver at 10 to 30 mg/kg, ip administered for 3 weeks by Western blotting analysis; format: functional, organism-based; details: dose 10-30 mg/kg
[29] = Nephrotoxicity in HFD induced C57BL/6 mouse assessed as change in serum CREA level at 10 to 30 mg/kg, ip administered for 3 weeks; format: toxicity, organism-based; details: in vivo, 504 h, dose 10-30 mg/kg
[30] = target: Proprotein convertase subtilisin/kexin type 9 (Homo sapiens) (UniProt Q8NBP7); assay: Inhibition of PCSK9 transcription in human HepG2 cells by AlphaLISA method; format: cell-based
[31] = target: Proprotein convertase subtilisin/kexin type 9 (Homo sapiens) (UniProt Q8NBP7); assay: Inhibition of PCSK9 (unknown origin) promoter activity expressed in HNF1alpha overexpressed HEK293 cells co-transfected with SV40 incubated for 24 hrs by dual luciferase assay; format: cell-based
HepG2 [32] = assay: Upregulation of LDLR protein level in human HepG2 cells by Western blotting analysis; format: functional, cell-based
Mus musculus [33] = assay: Hypolipidemic activity in HFD induced C57BL/6 mouse assessed as reduction in serum TC level at 10 to 30 mg/kg, ip administered for 3 weeks; format: functional, organism-based; details: dose 10-30 mg/kg
HepG2 [34] = assay: Induction of LDL uptake in human LDLR knockdown HepG2 cells at 5 uM incubated for 3 hrs under dark condition by DiI-LDL DMEM staining based fluorescence microplate reader assay; format: functional, cell-based
[35] = Cytotoxicity against human HepG2 cells assessed as cell viability at 20 uM after 24 hrs by CCK8 assay; format: toxicity, cell-based; details: read-out: Activity
Mus musculus [36] = assay: Hypolipidemic activity in HFD induced C57BL/6 mouse assessed as reduction in serum VLDL-C level at 10 to 30 mg/kg, ip administered for 3 weeks; format: functional, organism-based; details: dose 10-30 mg/kg
[37] = Nephrotoxicity in HFD induced C57BL/6 mouse assessed as change in serum UREA level at 10 to 30 mg/kg, ip administered for 3 weeks; format: toxicity, organism-based; details: in vivo, 504 h, dose 10-30 mg/kg
HepG2 [38] = assay: Upregulation of LDLR protein level in HNF1alpha knockdown human HepG2 cells at 10 uM incubated for 24 hrs by Western blotting analysis; format: functional, cell-based
[39] = target: Proprotein convertase subtilisin/kexin type 9 (Homo sapiens) (UniProt Q8NBP7); assay: Inhibition of PCSK9 (unknown origin) promoter activity expressed in HEK293 cells co-transfected with SV40 at 5 to 10 uM incubated for 24 hrs by dual luciferase assay; format: cell-based; details: dose 5-10 µM

C=C1[C@@H](OC(C)=O)[C@H]2[C@@H](OC(C)=O)[C@@H](C)C[C@]2(OC(C)=O)C(=O)[C@H](C)/C=C/C(C)(C)[C@H](OC(=O)c2ccccc2)[C@@H](OC(C)=O)[C@H]1OC(C)=O
3.1%: inhibition [1]

C=C1[C@@H](OC(C)=O)[C@H]2[C@@H](OC(C)=O)[C@@H](C)C[C@]2(OC(C)=O)C(=O)[C@H](C)/C=C/C(C)(C)C(=O)C[C@H]1OC(C)=O
active: Activity (HepG2 [3]) | Activity [4] | inhibition [5] Dose-Dependent Effect | Activity (HepG2 [6]) Dose-Dependent Effect | Activity (Hepatocyte [7]) | inhibition (HepG2 [12]) | Activity (HepG2 [13]) Dose-Dependent Effect | Activity (Mus musculus [15]) | Activity (Hepatocyte [16]) | Activity (HepG2 [19]) | Activity (Mus musculus [20]) | Activity (HepG2 [23]) Dose-Dependent Effect | Activity (HepG2 [24]) | Activity (Mus musculus [25]) | Activity (HepG2 [26]) Dose-Dependent Effect | Activity (Mus musculus [28]) | inhibition [30] Dose-Dependent Effect | inhibition [31] | Activity (HepG2 [32]) Dose-Dependent Effect | Activity (Mus musculus [33]) | Activity (Mus musculus [36])
inactive: Activity (HepG2 [8]) | Activity (HepG2 [10]) | inhibition [17] | Activity (HepG2 [18]) | Activity (HepG2 [21]) | Activity (HepG2 [27]) | Activity (HepG2 [34]) | Activity (HepG2 [38])
Toxic: Activity [9] | Activity [14]
Non-Toxic: Activity [2] | Activity [11] | Activity [22] | Activity [29] | Activity [37]
36.4%: inhibition [1]
> 95%: viability at 24 h, 20 µM [35]

C=C1[C@@H](OC(C)=O)[C@H]2[C@@H](OC(C)=O)[C@](C)(OC(=O)Cc3ccccc3)C[C@]2(OC(C)=O)C(=O)[C@H](C)/C=C/C(C)(C)[C@H](OC(=O)c2cccnc2)C[C@H]1OC(=O)C(C)C
> 95%: viability at 24 h, 20 µM [35]
56.1%: inhibition [1]
active: inhibition [39] | Activity (HepG2 [8]) | Activity (HepG2 [23]) | inhibition [30] Dose-Dependent Effect

C=C1[C@@H](OC(C)=O)[C@H]2[C@@H](OC(C)=O)[C@@H](C)C[C@]2(OC(C)=O)C(=O)[C@H](C)/C=C/C(C)(C)[C@H](O)C[C@H]1OC(=O)C(C)C
5.7%: inhibition [1]

C=C1[C@@H](OC(C)=O)[C@H]2[C@@H](OC(C)=O)[C@@H](C)C[C@]2(OC(C)=O)C(=O)[C@H](C)/C=C/C(C)(C)[C@H](OC(C)=O)[C@@H](OC(C)=O)[C@H]1OC(C)=O
0.1%: inhibition [1]

C=C1[C@@H](OC(C)=O)[C@H]2[C@@H](OC(C)=O)[C@@H](C)C[C@]2(OC(C)=O)C(=O)[C@H](C)/C=C/C(C)(C)C(=O)C[C@H]1OC(=O)C(C)C
35.7%: inhibition [1]
> 95%: viability at 24 h, 20 µM [35]
active: Activity (HepG2 [23]) | inhibition [30] Dose-Dependent Effect

C=C1[C@@H](OC(C)=O)[C@H]2[C@@H](OC(C)=O)[C@](C)(OC(C)=O)C[C@]2(OC(C)=O)C(=O)[C@H](C)[C@]2(C)O[C@H]2C(C)(C)[C@H](OC(C)=O)[C@@H](OC(=O)C(C)C)[C@H]1OC(=O)C(C)C
0.1%: inhibition [1]
